In patent publication US20070071727A1, “Melanocytes in therapy of neurodegenerative diseases” (priority 2003, published 2007):

Key:
[1] = test system: Parkinson's melanocytes and normal adult control melanocytes; assay: short time exposure (24 h), DNA synthesis by 3HdT incorporation and scintillation counts; format: cell-based, human; conditions: 24 h exposure; 0.5 μg/ml to 5.0 μg/ml
control melanocytes = format: cell-based, human; conditions: 10 days exposure; only at the highest concentration step 5.0 μg/ml

Row | Compound | difference in vulnerability between Parkinson's melanocytes and normal adult control melanocytes (DNA synthesis, 3HdT incorporation) [1] | impact on the growth of the control melanocytes (control melanocytes)
1 | CCCCC[C@H](O)/C=C/[C@H]1C=CC(=O)[C@@H]1C/C=C\CCCC(=O)O [PGA2] | no significant different in vulnerability | negative impact on the growth
2 | CCCCC[C@H](O)/C=C/[C@H]1[C@H](O)CC(=O)[C@@H]1C/C=C\CCCC(=O)O [PGE2] | no significant different in vulnerability | 
3 | CCCCC[C@H](O)/C=C/[C@@H]1[C@@H](C/C=C\CCCC(=O)O)[C@@H](O)C[C@H]1O [PGF2a] | no significant different in vulnerability | 
4 | CCCCC[C@H](O)/C=C/[C@H]1C(=O)C=C[C@@H]1C/C=C\CCCC(=O)O [PGJ2] | no significant different in vulnerability | negative impact on the growth
